Data from ChEMBL document CHEMBL2029320 (J Med Chem, 2012).
The source made the active and inactive calls. The calls are words filed in the database; no cut-off is given here. Residues, ends and D or L forms follow the SMILES beside them.

What was measured:
[1] = biological target: T1, Relaxin-3 receptor 1 (Homo sapiens, UniProt Q9NSD7); assay: Displacement of europium-labelled H3 relaxin-B chain/INSL-5 chain from RXFP3 expressed in CHO-K1 cells; type: cell-based
T1 sequence (Q9NSD7 whole entry): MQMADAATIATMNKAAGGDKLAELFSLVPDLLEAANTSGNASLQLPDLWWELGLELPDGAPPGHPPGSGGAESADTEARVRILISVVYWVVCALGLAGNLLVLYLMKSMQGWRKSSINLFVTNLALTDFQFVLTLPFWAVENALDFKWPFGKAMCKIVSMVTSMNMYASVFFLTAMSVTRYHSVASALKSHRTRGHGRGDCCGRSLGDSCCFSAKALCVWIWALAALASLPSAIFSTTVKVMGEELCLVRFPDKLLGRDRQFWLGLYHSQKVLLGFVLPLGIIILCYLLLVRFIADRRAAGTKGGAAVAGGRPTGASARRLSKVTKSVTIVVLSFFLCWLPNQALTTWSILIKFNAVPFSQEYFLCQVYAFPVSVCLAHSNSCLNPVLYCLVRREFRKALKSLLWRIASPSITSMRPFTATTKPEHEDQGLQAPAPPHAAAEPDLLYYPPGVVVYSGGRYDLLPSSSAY

[2] = biological target: T2, Relaxin receptor 1 (Homo sapiens, UniProt Q9HBX9); assay: Displacement of europium-labelled H2 relaxin from RXFP1 expressed in HEK-293T cells; type: cell-based
T2 sequence (Q9HBX9 whole entry): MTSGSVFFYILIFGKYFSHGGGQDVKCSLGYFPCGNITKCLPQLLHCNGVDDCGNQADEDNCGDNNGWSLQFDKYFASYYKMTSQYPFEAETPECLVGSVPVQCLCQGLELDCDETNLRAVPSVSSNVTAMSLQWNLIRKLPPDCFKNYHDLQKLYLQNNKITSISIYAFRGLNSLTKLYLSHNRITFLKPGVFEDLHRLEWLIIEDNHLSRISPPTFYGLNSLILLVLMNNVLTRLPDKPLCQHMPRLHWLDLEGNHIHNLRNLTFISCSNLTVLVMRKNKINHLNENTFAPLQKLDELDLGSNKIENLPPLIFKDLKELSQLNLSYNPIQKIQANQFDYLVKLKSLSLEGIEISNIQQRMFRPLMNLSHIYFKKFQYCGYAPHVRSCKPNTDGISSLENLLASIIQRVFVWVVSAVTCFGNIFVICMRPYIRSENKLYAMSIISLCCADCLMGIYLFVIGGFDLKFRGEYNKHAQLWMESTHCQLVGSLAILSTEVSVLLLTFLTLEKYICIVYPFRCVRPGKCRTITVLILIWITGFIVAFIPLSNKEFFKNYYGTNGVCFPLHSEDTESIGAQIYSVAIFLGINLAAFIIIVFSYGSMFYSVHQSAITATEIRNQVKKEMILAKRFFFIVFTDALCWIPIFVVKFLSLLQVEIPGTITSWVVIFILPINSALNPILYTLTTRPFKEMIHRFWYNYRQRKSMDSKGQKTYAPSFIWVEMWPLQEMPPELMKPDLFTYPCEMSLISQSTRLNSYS

[3] = biological target: T1, Relaxin-3 receptor 1; assay: Agonist activity at RXFP3 expressed in CHO-K1 cells assessed as inhibition of forskolin-induced cAMP accumulation after 6 hrs by beta galactosidase reporter gene assay; type: functional, cell-based
[4] = biological target: Relaxin-3 receptor 2 (Homo sapiens, UniProt Q8TDU9); assay: Agonist activity at RXFP4 expressed in CHO-K1 cells assessed as inhibition of forskolin-induced cAMP accumulation after 6 hrs by beta galactosidase reporter gene assay; type: functional, cell-based
Sequence of Relaxin-3 receptor 2 (Q8TDU9 whole entry): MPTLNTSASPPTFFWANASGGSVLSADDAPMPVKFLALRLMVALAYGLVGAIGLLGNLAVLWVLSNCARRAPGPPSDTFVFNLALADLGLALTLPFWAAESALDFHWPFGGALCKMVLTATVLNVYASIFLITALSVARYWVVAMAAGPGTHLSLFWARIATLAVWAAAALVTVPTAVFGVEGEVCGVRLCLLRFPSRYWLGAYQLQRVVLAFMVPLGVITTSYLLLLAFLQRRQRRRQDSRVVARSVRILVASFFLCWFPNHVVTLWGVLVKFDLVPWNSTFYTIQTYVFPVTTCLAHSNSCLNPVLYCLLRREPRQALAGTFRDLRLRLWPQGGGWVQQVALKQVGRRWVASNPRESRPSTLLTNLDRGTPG

[5] = biological target: T3, Relaxin receptor 1 (Homo sapiens) (UniProt Q9HBX9); assay: Activation of RXFP1 expressed in HEK-293T cells assessed as induction of cAMP accumulation after 6 hrs by beta galactosidase reporter gene assay; type: functional, cell-based
T3 sequence (whole entry): T2 sequence (Q9HBX9 whole entry)

Ki [1] [nM] | Molecule | also measured
3390 | H-RAAPYGVRLSGREFIRAVIFTRGGSRW-OH | 
112 | CC[C@H](C)[C@@H]1NC(=O)[C@H](Cc2ccccc2)NC(=O)[C@H](CCC(=O)O)NC(=O)[C@H](CCCN=C(N)N)NC(=O)CNC(=O)[C@@H](NC(=O)[C@H](CC(C)C)NC(=O)[C@@H](N)CCCN=C(N)N)CSSC[C@H](N)C(=O)N[C@@H](CCCCN)C(=O)N[C@@H](Cc2c[nH]c3ccccc23)C(=O)NCC(=O)N[C@@H](C)C(=O)N[C@@H](CO)C(=O)N[C@@H](CCCCN)C(=O)N[C@@H](CO)C(=O)N[C@@H](CCC(=O)O)C(=O)N[C@@H]([C@@H](C)CC)C(=O)N[C@@H](CO)C(=O)N[C@@H](CO)C(=O)N[C@@H](CC(C)C)C(=O)N[C@H](C(=O)O)CSSC[C@@H](C(=O)NCC(=O)NCC(=O)N[C@@H](CO)C(=O)N[C@@H](CCCN=C(N)N)C(=O)N[C@@H](Cc2c[nH]c3ccccc23)C(=O)O)NC(=O)[C@H]([C@@H](C)O)NC(=O)[C@H](Cc2ccccc2)NC(=O)[C@H]([C@@H](C)CC)NC(=O)[C@H](C(C)C)NC(=O)[C@H](C)NC(=O)[C@H](CCCN=C(N)N)NC1=O | Ki [2]: > 10000 nM; IC50 [3]: 5.13 nM; IC50 [4]: 7.94 nM
> 10000 | CC[C@H](C)[C@H](NC(=O)[C@@H](NC(=O)[C@H](C)NC(=O)[C@H](CCCN=C(N)N)NC(=O)[C@H](CS)NC(=O)[C@H](Cc1ccccc1)NC(=O)[C@H](CCC(=O)O)NC(=O)[C@H](CCCN=C(N)N)NC(=O)CNC(=O)[C@H](CO)NC(=O)[C@H](CC(C)C)NC(=O)[C@H](CCCN=C(N)N)NC(=O)[C@@H](NC(=O)CNC(=O)[C@H](Cc1ccc(O)cc1)NC(=O)[C@@H]1CCCN1C(=O)[C@H](C)NC(=O)[C@H](C)NC(=O)[C@@H](N)CCCN=C(N)N)C(C)C)C(C)C)C(=O)N[C@@H](Cc1ccccc1)C(=O)N[C@H](C(=O)N[C@@H](CS)C(=O)NCC(=O)NCC(=O)N[C@@H](CO)C(=O)N[C@@H](CCCN=C(N)N)C(=O)N[C@@H](Cc1c[nH]c2ccccc12)C(=O)O)[C@@H](C)O (H-RAAPYGVRLSGREFCRAVIFTCGGSRW-OH) | 
> 10000 | CC[C@H](C)[C@H](NC(=O)[C@H](Cc1ccccc1)NC(=O)[C@H](CCC(=O)O)NC(=O)[C@H](CCCNC(=N)N)NC(=O)CNC(=O)[C@H](CO)NC(=O)[C@H](CC(C)C)NC(=O)[C@H](CCCNC(=N)N)NC(=O)[C@@H](NC(=O)CNC(=O)[C@H](CS)NC(=O)[C@@H]1CCCN1C(=O)[C@H](C)NC(=O)[C@H](C)NC(=O)[C@@H](N)CCCNC(=N)N)C(C)C)C(=O)N[C@@H](CCCNC(=N)N)C(=O)N[C@@H](C)C(=O)N[C@H](C(=O)N[C@H](C(=O)N[C@@H](Cc1ccccc1)C(=O)N[C@@H](CS)C(=O)N[C@@H](CO)C(=O)NCC(=O)NCC(=O)N[C@@H](CO)C(=O)N[C@@H](CCCNC(=N)N)C(=O)N[C@@H](Cc1c[nH]c2ccccc12)C(=O)O)[C@@H](C)CC)C(C)C (H-RAAPCGVRLSGREFIRAVIFCSGGSRW-OH) | 

Further lines, the molecule ahead of its results:

Molecule | Ki [1] [nM] | also measured
CC[C@H](C)[C@H](NC(=O)[C@H](CS)NC(=O)[C@H](CCC(=O)O)NC(=O)[C@H](CCCN=C(N)N)NC(=O)CNC(=O)[C@H](CS)NC(=O)[C@H](CC(C)C)NC(=O)[C@H](CCCN=C(N)N)NC(=O)[C@@H](NC(=O)CNC(=O)[C@H](Cc1ccc(O)cc1)NC(=O)[C@@H]1CCCN1C(=O)[C@H](C)NC(=O)[C@H](C)NC(=O)[C@@H](N)CCCN=C(N)N)C(C)C)C(=O)N[C@@H](CCCN=C(N)N)C(=O)N[C@@H](C)C(=O)N[C@@H](CS)C(=O)N[C@H](C(=O)N[C@@H](Cc1ccccc1)C(=O)N[C@H](C(=O)N[C@@H](CS)C(=O)NCC(=O)NCC(=O)N[C@@H](CO)C(=O)N[C@@H](CCCN=C(N)N)C(=O)N[C@@H](Cc1c[nH]c2ccccc12)C(=O)O)[C@@H](C)O)[C@@H](C)CC (H-RAAPYGVRLCGRECIRACIFTCGGSRW-OH) | > 10000 | 
H-RAAPYGVRLSGREFIRKVIFTSGGSRW-OH | > 10000 | 
CC[C@H](C)[C@@H]1NC(=O)[C@H](Cc2ccccc2)NC(=O)[C@H](CCC(=O)O)NC(=O)[C@H](CCCNC(=N)N)NC(=O)CNC(=O)[C@@H](N)CSSC[C@H](N)C(=O)N[C@@H](CCCCN)C(=O)N[C@@H](Cc2c[nH]c3ccccc23)C(=O)NCC(=O)N[C@@H](C)C(=O)N[C@@H](CO)C(=O)N[C@@H](CCCCN)C(=O)N[C@@H](CO)C(=O)N[C@@H](CCC(=O)O)C(=O)N[C@@H]([C@@H](C)CC)C(=O)N[C@@H](CO)C(=O)N[C@@H](CO)C(=O)N[C@@H](CC(C)C)C(=O)N[C@H](C(=O)O)CSSC[C@@H](C(=O)NCC(=O)NCC(=O)N[C@@H](CO)C(=O)N[C@@H](CCCNC(=N)N)C(=O)N[C@@H](Cc2c[nH]c3ccccc23)C(=O)O)NC(=O)[C@H]([C@@H](C)O)NC(=O)[C@H](Cc2ccccc2)NC(=O)[C@H]([C@@H](C)CC)NC(=O)[C@H](C(C)C)NC(=O)[C@H](C)NC(=O)[C@H](CCCNC(=N)N)NC1=O |  | pIC50 [5]: inactive
H-RAAPYGVRLSGREFIRAVIFTSRGSRW-OH | 2090 | 
CC[C@H](C)[C@@H]1NC(=O)[C@H](Cc2ccccc2)NC(=O)[C@H](CCC(=O)O)NC(=O)[C@H](CCCN=C(N)N)NC(=O)CNC(=O)[C@@H](N)CSSC[C@H](N)C(=O)N[C@@H](CCCCN)C(=O)N[C@@H](Cc2c[nH]c3ccccc23)C(=O)NCC(=O)N[C@@H](C)C(=O)N[C@@H](CO)C(=O)N[C@@H](CCCCN)C(=O)N[C@@H](CO)C(=O)N[C@@H](CCC(=O)O)C(=O)N[C@@H]([C@@H](C)CC)C(=O)N[C@@H](CO)C(=O)N[C@@H](CO)C(=O)N[C@@H](CC(C)C)C(=O)N[C@H](C(=O)O)CSSC[C@@H](C(=O)NCC(=O)NCC(=O)N[C@@H](CO)C(=O)N[C@@H](CCCN=C(N)N)C(=O)N[C@@H](Cc2c[nH]c3ccccc23)C(=O)O)NC(=O)[C@H]([C@@H](C)O)NC(=O)[C@H](Cc2ccccc2)NC(=O)[C@H]([C@@H](C)CC)NC(=O)[C@H](C(C)C)NC(=O)[C@H](C)NC(=O)[C@H](CCCN=C(N)N)NC1=O |  | Ki [2]: > 10000 nM; IC50 [4]: 3.47 nM
H-RAAPYGVRLSGREFIRAVIFTSGGSRW-OH | 2950 | 
CC[C@H](C)[C@@H]1NC(=O)[C@H](Cc2ccccc2)NC(=O)[C@H](CCC(=O)O)NC(=O)[C@H](CCCNC(=N)N)NC(=O)CNC(=O)[C@@H](NC(=O)[C@H](CC(C)C)NC(=O)[C@H](CCCNC(=N)N)NC(=O)[C@@H](NC(=O)CN)C(C)C)CSSC[C@H](N)C(=O)N[C@@H](CCCCN)C(=O)N[C@@H](Cc2c[nH]c3ccccc23)C(=O)NCC(=O)N[C@@H](C)C(=O)N[C@@H](CO)C(=O)N[C@@H](CCCCN)C(=O)N[C@@H](CO)C(=O)N[C@@H](CCC(=O)O)C(=O)N[C@@H]([C@@H](C)CC)C(=O)N[C@@H](CO)C(=O)N[C@@H](CO)C(=O)N[C@@H](CC(C)C)C(=O)N[C@H](C(=O)O)CSSC[C@@H](C(=O)NCC(=O)NCC(=O)N[C@@H](CO)C(=O)N[C@@H](CCCNC(=N)N)C(=O)N[C@@H](Cc2c[nH]c3ccccc23)C(=O)O)NC(=O)[C@H]([C@@H](C)O)NC(=O)[C@H](Cc2ccccc2)NC(=O)[C@H]([C@@H](C)CC)NC(=O)[C@H](C(C)C)NC(=O)[C@H](C)NC(=O)[C@H](CCCNC(=N)N)NC1=O |  | Ki [2]: > 10000 nM; pIC50 [5]: inactive; IC50 [4]: 14.1 nM
H-RAAPYGVRLSGREFIRAVIFTSRGGSRW-OH | 2570 | 
CC[C@H](C)[C@@H]1NC(=O)[C@H](Cc2ccccc2)NC(=O)[C@H](CCC(=O)O)NC(=O)[C@H](CCCNC(=N)N)NC(=O)CNC(=O)[C@@H](NC(=O)[C@H](CC(C)C)NC(=O)[C@@H](N)CCCNC(=N)N)CSSC[C@H](N)C(=O)N[C@@H](CCCCN)C(=O)N[C@@H](Cc2c[nH]c3ccccc23)C(=O)NCC(=O)N[C@@H](C)C(=O)N[C@@H](CO)C(=O)N[C@@H](CCCCN)C(=O)N[C@@H](CO)C(=O)N[C@@H](CCC(=O)O)C(=O)N[C@@H]([C@@H](C)CC)C(=O)N[C@@H](CO)C(=O)N[C@@H](CO)C(=O)N[C@@H](CC(C)C)C(=O)N[C@H](C(=O)O)CSSC[C@@H](C(=O)NCC(=O)NCC(=O)N[C@@H](CO)C(=O)N[C@@H](CCCNC(=N)N)C(=O)N[C@@H](Cc2c[nH]c3ccccc23)C(=O)O)NC(=O)[C@H]([C@@H](C)O)NC(=O)[C@H](Cc2ccccc2)NC(=O)[C@H]([C@@H](C)CC)NC(=O)[C@H](C(C)C)NC(=O)[C@H](C)NC(=O)[C@H](CCCNC(=N)N)NC1=O |  | pIC50 [5]: inactive
H-RAAPYGVRLSGREFIRAVIFRSGGSRW-OH | 741 | 
